Reference: ChEMBL document CHEMBL1126732, “Synthesis of and radioligand binding studies with a tritiated pinacidil analogue: receptor interactions of structurally different classes of potassium channel openers and blockers” (J Med Chem, 1993)
Structures can show the parent of a compound that is named as a salt.

Species: Rattus norvegicus
Experiment: Vasorelaxant activity expressed as negative logarithm of the concentration causing a 50% inhibition of spontaneous myogenic activity in rat portal vein.
Format: functional

For `CCC(C)(C)/N=C(\NC#N)Nc1cccnc1`, which pD2 is on record?
Its pD2 is 8.75.

`C[C@@H](N/C(=C\[N+](=O)[O-])Nc1cccnc1)C(C)(C)C` was tested. Which pD2 did it give?
The pD2 was 6.

How did the pD2 turn out when `C[C@H](N/C(=C\[N+](=O)[O-])Nc1cccnc1)C(C)(C)C` was run?
Its pD2 is 7.96.

`CC1(C)Oc2ccc(C#N)cc2[C@H](OC2=CC(=O)CC2)[C@H]1O` was tested. Which pD2 did it give?
Its pD2 is 5.26.

With `CC1(C)Oc2ccc(C#N)cc2[C@@H](OC2=CC(=O)CC2)[C@@H]1O` as the compound, how does the pD2 read?
Its pD2 is 7.85.

`CC(N/C(=N\C#N)Nc1ccncc1)C(C)(C)C` (stereo in doubt; 11) [PINACIDIL ANHYDROUS] was tested. Which pD2 did it give?
Its pD2 is 7.47.

With `CC(N/C(=N\C#N)Nc1ccncc1)C(C)(C)C` (stereo in doubt; 12) [PINACIDIL ANHYDROUS] as the compound, how does the pD2 read?
Its pD2 is 6.11.

For `CC1(C)C=C(n2ccccc2=O)c2cc(C#N)ccc2O1` [BIMAKALIM], which pD2 is on record?
The pD2 was 8.2.

Which pD2 does the source give for `CC1(C)Oc2ccc(C#N)cc2C(N2CCCC2=O)C1O` (configuration not stated) [CROMAKALIM] here?
Its pD2 is 5.66.

Which pD2 does the source give for `CC1=Nc2ccc(Cl)cc2S(=O)(=O)N1` [DIAZOXIDE] here?
Its pD2 is 5.5.

Which pD2 does the source give for `CC1(C)Oc2ccc(C#N)cc2[C@@H](N2CCCC2=O)[C@@H]1O` [LEVCROMAKALIM] here?
Its pD2 is 7.89.

With `Nc1cc(N2CCCCC2)nc(N)[n+]1OS(=O)(=O)[O-]` [MINOXIDIL SULFATE] as the compound, how does the pD2 read?
The pD2 was 7.14.
